Measurements from US20110233526A1, “PERYLENE DIIMIDE DERIVATIVE AND ORGANIC SEMICONDUCTOR ELEMENT USING THE SAME MATERIAL” (priority 2010, published 2011).

Columns and labels:
[1] = Solubility in organic solution; type: physicochemical; conditions: organic solution (such as toluene)
[2] = Electron mobility of TC-PDA-F in an OTFT versus time of exposure to air (air-stability, FIG. 3); type: physicochemical; conditions: OTFT thin film
Excerpt: Refer to FIG. 1 and FIG. 2 for diagrams respectively schematically showing a BG-TC (Bottom Gate-Top Contact) OTFT and a BG-BC (Bottom Gate-Bottom Contact) OTFT. The BG-TC OTFT 10 has a substrate 11, a gate 12 formed on the substrate 11, a dielectric layer 13 formed on the gate 12, a source 14 and a drain 15 formed over the dielectric layer 13, and an organic semiconductor layer 16 for conducting the source 14 and the drain 15. The BG-BC OTFT 20 has a substrate 21, a gate 22 formed on the substrate 21, a dielectric layer 23 formed on the gate 22, a source 24 and a drain 25 formed on the dielectric layer 23, and an organic semiconductor layer 26 for conducting the source 24 and the drain 25. In one embodiment, the organic semiconductor layers 16 and 26 are fabricated with a soluble process in the atmospheric environment. In one embodiment, the dielectric layers 13 and 23 respectively formed on the substrates 11 and 21 also are fabricated with a soluble process. For example, a liquid-phase deposited silicon dioxide (LPD-SiO2) is formed on a silicon substrate 11 or 21 to function as the dielectric layer 13 or 23, whereby the electron mobility thereof can reach 0.26 cm^2V^−1s^−1. Refer to FIG. 3 for a diagram showing the relationship of the electron mobility of TC-PDA-F and the time of exposure to air.

In the case of `O=C1c2cc(Cl)c3c4c(Cl)cc5c6c(cc(Cl)c(c7c(Cl)cc(c2c37)C(=O)N1Cc1cc(F)cc(C(F)(F)F)c1)c64)C(=O)N(Cc1cc(F)cc(C(F)(F)F)c1)C5=O` [TC-PDA-F], the “solubility in organic solution” value [1] is reported as “can be dissolved”, the electron mobility ([2]; after exposure to air for two months (FIG. 3)) is reported as 1.6×10^−5 cm^2V^−1s^−1 and the electron mobility ([2]; before exposure to air (FIG. 3)) is reported as 5.34×10^−5 cm^2V^−1s^−1.
